For series [1], the system named is ovalbumin sensitized and challenged Brown Norway rats. As to the kind of experiment: Airway changes of ovalbumin sensitized and challenged Brown Norway rats, intratracheal administration. The following applies: for AHR (airways hyperreactivity) ED50: relative response to maximal acetylcholine dose. Type of series: in vivo.
The nature of series [2]: Stability in the presence of human plasma (HPLC/MS/MS). The following applies: 37° C. Type of series: in vitro ADME. As to the method: Etiprednol dicloacetate (BNP-166) was added to freshly prepared human plasma of healthy donors at a concentration of 5 ng/ml, and were incubated at 37° C. for different intervals. After incubation the amount of the original compound (ethyl-17α-dichloroacetoxy-11β-hydroxyandostra-1,4-diene-3-one-17β-carboxylate), and one of its main metabolite, M-OH (17α,11β-dihydroxyandostra-1,4-diene-3-one-17β-carboxylate) were determined using an HPLC/MS/MS method. In brief: Fluocinolone acetonide served as internal standard (20 ng/ml), samples were extracted with a liquid-liquid extraction on Extrelut® columns, and were separated on a Purospher STAR 30×2 mm (3 μm) reversed phase column at a flow rate of 0.3 ml/min, using a linear gradient with a mobile phase system containing acetonitrile, water and acetic acid. Determination were performed on a triple quadrupole mass spectrometer (Perkin-Elmer SCIEX API 2000) supplied with an electrospray interface operated in the positive ionization mode. The multiple ion monitoring, parent→daughter ion transitions of 485.2→265.2, 375.2→265.2 and 495.2→337.2 were used for the quantification of etiprednol dicloacetate, its M-OH metabolite and for the internal standard respectively. Results are expressed as peak areas normalized to the internal control. Stability of the selected ED analogs (10, 11, 13, 17, 21, 25) were determined as described above for ED (3).

The subject of series [3] is TNF α-production of LPS-stimulated blood cells. As to the kind of experiment: TNF-α production of lipopolysaccharide-stimulated human blood. Type of series: cell-based. The procedure:
(§1) The in vitro anti-inflammatory effect of ED and its analogs was assessed using LPS-induced TNF α-release under various conditions (diluted or undiluted whole human blood, preincubation with sera) to determine the intrinsic anti-inflammatory activity and systemic biological stability of the various compounds.
(§2) Commercially available human cytokine ELISA sets were used. TNF-α and GM-CSF sets were purchased from BD Pharmingen, San Diego, Calif., USA) and the IL-1β set was obtained from R&D Systems (Minneapolis, Minn., USA). ELISA was performed according to the manufacturer's protocol. Cell-free supernatants were tested in duplicate. Detection limits were 7.8 pg/ml for TNF-α, 4.7 pg/ml for GM-CSF, and 3.9 pg/ml for IL-1β. Results were expressed as the mean percentage of inhibition. IC50 values for test compounds were calculated by linear regression.
Peripheral blood from healthy donors was collected aseptically into sterile heparinized (Vacutainer™) tubes. Whole blood samples from each individual were parallel used both undiluted and after 5-fold dilution with RPMI-1640 medium in every experiment. Blood samples were distributed into 24-well plates and incubated with serial concentrations of the test compounds and 1 μg/ml lipopolysaccharide for 24 h at 37° C. in a CO2 thermostat. Controls were treated with lipopolysaccharide and the vehicle (PBS or 0.01% dimethyl sulfoxide in PBS). After incubation, cell-free supernatants were separated by centrifugation (1000 g for 10 minutes) and stored at −20° C. until determination of the amount of TNF-α. Test compounds were examined in blood samples from five different individuals. Two parallel cultures per treatments were run.

The test system of series [4] is TNF-α production of LPS-stimulated whole blood cells. As to the kind of experiment: Stability: inhibition of TNF-α production with or without preincubation of the compounds in human plasma/serum. In kind it is cell-based. As to the method:
as §1, §2
Mononuclear cells from peripheral blood of healthy donors were isolated on Ficoll-gradient. One million cells in 0.9 ml of RPMI 1640 medium were distributed into 24-well plates and serial concentrations of the test compounds, made in fresh human serum either instantly or 18 h previously, were added (0.05 ml) together with the lipopolysaccharide (0.05 ml; 1 μg/ml final concentration). Preincubation of the compounds with serum was carried out at 37° C. Processing of the cultures was done as described above.

Series [5] deals with mitogen-induced proliferation of PBMC. Put plainly: Proliferation of lectin-stimulated peripheral mononuclear cells. In kind it is cell-based, human. The following applies: read-out: Prolif.**: Inhibition of mitogen-induced proliferation of PBMC. As to the method: Mononuclear cells from heparinized peripheral blood of healthy donors were isolated on suitable gradient (Optiprep solution, 1.077 g/ml). Serial dilutions of the test compounds (ranging from 2×10^−6 to 2×10^−8 M) were made in 100 μl of medium per well of sterile round-bottomed 96-well microtiter plate. Control wells contained culture medium only. 100 μl of cell suspension (10^6 cells/ml), containing concanavalin A (2 μg/ml) was added to each well. […] All cultures were done in triplicate. Microtiter plates were incubated for 72 h at 37° C., in 5% CO2 containing humidified atmosphere. For the last 18 h of incubation, [^3H]thymidine was added to the cells cultures, at 0.1 μCi/well final concentration. At the end of the incubation, cells were harvested to glass microfiber filter (Whatman G/F) and associated radioactivity was determined by liquid scintillation.

The subject of the next series is TNF-α production. The following applies: cited from earlier work.
Series [6] relates to IL-1β from the human monocyte cell line THP-1. As to the kind of experiment: IL-1β production of stimulated THP.1 cells. In kind it is cell-based. The procedure: as §2
THP.1 cells (human monocytic cell line: American Type Culture Collection. Rockville, Md., USA) were maintained in RPMI-1640 medium, supplemented with 10% FCS, 5×10^−5 M 2-merkapto-ethanol, 2 mM glutamine and antibiotics, and were split in every 3rd days. To examine the effect of test compounds 2×10^6 cells/well (24 well plates in 1 ml/well volume) were stimulated with 1 μg/ml LPS and 25 μg/ml silica for IL-1β production as described previously (Németh et al. 1995). The test compounds were dissolved in RPMI-1640 medium or the medium containing 0.01% DMSO. Two parallel cell cultures per treatment groups were run in three independent experiments. IL-1β levels in cell-free supernatants were determined by ELISA.

Another series concerns receptor. The following applies: scale where dexamethasone is 100; cited from earlier work.
The mark [7] stands for this setting: intratracheal, 2 hours prior challenge.
Setting [8] is: intratracheal, 2 hours prior challenge, minimal statistically significantly effective dose.
Setting [9] is: diluted blood 1:5, read-out: TNFα* a: Inhibition of TNF α-production of LPS-stimulated blood cells.
[10] abbreviates: undiluted blood, read-out: TNFα* b: Inhibition of TNF α-production of LPS-stimulated blood cells.
[11] abbreviates: non-preincubated in human plasma, read-out: Stability*** c: Inhibition of TNF-α production of LPS-stimulated whole blood cells.
Setting [12] is: preincubated overnight in human plasma, read-out: Stability*** d: Inhibition of TNF-α production of LPS-stimulated whole blood cells.

Like-named read-outs stand apart in the source and are kept apart here.

Results on four molecules are retold here after patent publication US11447522B2, “Potent soft anti-inflammatory corticosteroid compounds and uses thereof” (Bodor Laboratories, Inc., priority 2017, dated 2022).

In the case of `C[C@@H]1C[C@H]2[C@@H]3C[C@H](F)C4=CC(=O)C=C[C@]4(C)[C@@]3(F)[C@@H](O)C[C@]2(C)[C@@]1(OC(=O)C(Cl)Cl)C(=O)SCF` [Compound 25, S-Fluoromethyl 17α-dichloroacetoxy-6α,9α-difluoro-11β-hydroxy-16α-methyl-3-oxoandrosta-1,4-diene-17β-carbothioate], in series [1] (Table 2 parameters), the “overall in vivo activity compared with the parent steroid” value is “overall superior to FLU”. In series [1] (setting [7]), the “Edema formation ED50” value is less than 1.0 µg/kg, the “Eosinophilia BALF ED50” value was determined as 16.1 µg/kg, the “Eosinophilia Perivascular ED50” value was found to be 83.8 µg/kg and the “Mucus production ED50” value is 7.42 µg/kg. Also, in series [1] (setting [7]), the “Mucus production, second line (dose type not given)” value came out at 100 µg/kg and the “AHR (airways hyperreactivity) ED50” value came out at 3.75 µg/kg. Further, in series [1] (intratracheal, 2 hours prior challenge, broncho-alveolar lavage fluid), the “BALF protein ED50” value is 0.64 µg/kg. In series [1] (setting [8]), the “AHR (airways hyperreactivity) MSED” value came to 10 µg/kg, the “BALF protein MSED” value is 100 µg/kg, the “Edema formation MSED” value is 1.0 µg/kg and the “Eosinophilia BALF MSED” value turned out to be 1.0 µg/kg. Also, the “Eosinophilia Perivascular MSED” value in series [1] (setting [8]) came to 1.0 µg/kg. The “stability in the presence of human plasma” value in series [2] is recorded as “particularly stable”. The IC50 in series [3] (setting [9]) was determined as 2 nM. Further, the IC50 in series [3] (setting [10]) came out at 3 nM. Besides, the IC50 in series [4] (setting [11]) came to 1 nM. Further, in series [4] (setting [12]), the IC50 was 87 nM. Moreover, in series [5], the IC50 stood at 0.1 nM.

In the case of `C[C@@H]1C[C@H]2[C@@H]3C[C@H](F)C4=CC(=O)C=C[C@]4(C)[C@@]3(F)[C@@H](O)C[C@]2(C)[C@@]1(OC(=O)C(Cl)Cl)C(=O)OCF` [Compound 21, Fluoromethyl 17α-dichloroacetoxy-6α,9α-difluoro-11β-hydroxy-16α-methyl-3-oxoandrosta-1,4-diene-17β-carboxylate], the “stability in the presence of human plasma” value in series [2] is “particularly stable”. The IC50 in series [3] (setting [9]) was determined as 1.4 nM; in series [3] (setting [10]) it was 4.5 nM; in series [4] (setting [11]), 1.4 nM; in series [4] (setting [12]), 25 nM; in series [5] it was 9 nM.

Turning to `CCOC(=O)[C@@]1(OC(=O)C(Cl)Cl)CC[C@H]2[C@@H]3CCC4=CC(=O)C=C[C@]4(C)[C@H]3[C@@H](O)C[C@@]21C` [Compound 3, Ethyl 17α-dichloroacetoxy-11β-hydroxyandrosta-1,4-diene-3-one-17β-carboxylate], in series [1] (setting [7]), the “Edema formation ED50” value is 2.9 µg/kg, the “Eosinophilia BALF ED50” value was no more than 0.1 µg/kg, the “Eosinophilia Peribronchial ED50” value worked out at 0.62 µg/kg and the “Eosinophilia Perivascular ED50” value was greater than 100 µg/kg. Moreover, in series [1] (setting [7]), the “Mucus production ED50” value amounted to 13.8 µg/kg; the “Mucus production, second line (dose type not given)” value came to 0.1 µg/kg; the “AHR (airways hyperreactivity) ED50” value was “≈1.0 μg/kg”. Also, in series [1] (setting [8]), the “AHR (airways hyperreactivity) MSED” value is given as “≈1.0 μg/kg”, the “Edema formation MSED” value was 0.1 µg/kg, the “Eosinophilia BALF MSED” value is 0.1 µg/kg and the “Eosinophilia Peribronchial MSED” value amounted to 0.1 µg/kg. Also, in series [1] (setting [8]), the “Eosinophilia Perivascular MSED” value worked out at 1.0 µg/kg. Also, the “loss of activity during incubation” value in the series with TNF-α production (five days) is listed as 100 fold. Further, the “loss of activity during incubation” value in the series with TNF-α production (two days) was “five-fold”. Besides, the “inhibition of the liberation of IL-1β” value in series [6] is recorded as “significantly inhibited”. In addition, the “relative receptor binding activity (RRBA)” value in the series on receptor is reported as roughly 200. The IC50 in series [3] (setting [9]) was 27 nM. Also, the IC50 in series [3] (setting [10]) worked out at 103 nM. In addition, the IC50 in series [4] (setting [11]) turned out to be 73 nM. Moreover, the IC50 in series [4] (setting [12]) came to 2700 nM. Also, in series [5], the IC50 worked out at 10 nM.

As to `CCOC(=O)O[C@]1(C(=O)OCCl)CCC2C3CCC4=CC(=O)C=CC4(C)C3[C@@H](O)CC21C` (stereo partly drawn) [LE, chloromethyl 17α-ethoxycarbonyloxy-11β-hydroxyandrosta-1,4-dien-3-one-17β-carboxylate], in the series on receptor, the “relative receptor binding activity (RRBA)” value is recorded as 160.
